Test results as given in publication PMC6470840 (International Journal of Molecular Sciences, 2019).
Entries after “also recorded” stand apart in the source; their conditions may differ.

Columns and labels:
[1] = simulated intestinal fluid (SIF), pH 6.8 ± 0.1, prepared in accordance with the US Pharmacopeia; conditions: 37 °C, up to 120 min
human plasma = conditions: 37 °C, up to seven days
[2] = simulated gastric fluid (SGF), pH 1.2, prepared in accordance with the US Pharmacopeia; conditions: 37 °C, up to 120 min
[3] = blood samples of rats after intravenous injection or intragastric administration; conditions: male Wistar rats, up to 12 h
[4] = Method: As a peroxidase mimetic, the enzymatic potency of the digestion products of DhHP-6 were assessed using the H2O2–Vitamin C (Vc) double-substrate method. Digestion products of DhHP-6 were diluted to 10 μM. Samples containing no enzyme were used as a control. The reaction system consisted of phosphate buffer solution (PBS) (50 mM, pH 7.4), H2O2 (1 mM), Vc ([…]), and 10 μM DhHP-6. All samples were assayed at 25 °C. The decrease in the absorbance at 290 nm was measured for 30 s by UV–Vis spectrophotometer (Shimadzu, Kyoto, Japan), and measurements were performed prior to the addition of the digestion products and set as 100% relative enzymatic activity.
T2DM rats = tested on: T2DM rats; parameters: method as in PMID 24946264; conditions: injected (intraperitoneal injection); cited from earlier work
Description: DhHP-6 (Deuterohemin-βAla-His-Thr-Val-Glu-Lys) was designed based on the microperoxidase-11 (MP-11), generated through […]. […] When ...

T2DM mice [5] = test: T2DM mouse model: pancreas islet histology (H&E); format: in vivo, C57BL/6J mice; conditions: DhHP-6 60 mg/kg or metformin 250 mg/kg oral, four weeks
Method: (§1) At the end of the experiment, the liver and pancreas islets were immediately removed after the mice were sacrificed. The left lobe of the liver was stored at −80 °C and the right lobe of the liver was fixed in 4% paraformaldehyde (Solarbio & Technology Co., Ltd., Beijing, China). After dehydration in a gradient of ethanol concentrations, tissues were paraffin embedded and cut into 5 μm thick sections. Slices were stained with hematoxylin and eosin (H&E) dyes, and sections were mounted in neutral deparaffinized xylene medium for microscopic examination using an Olympus BX53 fluorescence microscope (Olympus, Tokyo, Japan).

T2DM mice [6] = test: T2DM mouse model: liver histology (H&E); format: in vivo, C57BL/6J mice; conditions: DhHP-6 60 mg/kg or metformin 250 mg/kg oral, four weeks
Method: as §1

Deuterohemin-βAla-His-Thr-Val-Glu-Lys
fragment found [1]: DhHP-5; also recorded: DhHP-2 (Deuterohemin-βAla-His)
fragment found (human plasma): DhHP-3 (Deuterohemin-βAla-His-Thr), major
fragment found [2]: DhHP-5 (Deuterohemin-βAla-His-Thr-Val-Glu), major
fragment found [3]: DhHP-3, major

Deuterohemin-βAla-His-Thr [DhHP-3]
relative enzyme activity of the plasma degradation product [4]: retained the relative enzyme activity of DhHP-6

deuterohemin-Ala-His-Lys [DhHP-3 (deuterohemin-Ala-His-Lys)]
symptoms of T2DM rats (T2DM rats): improves the symptoms of T2DM rats

CN(C)C(=N)N=C(N)N [metformin, reference compound]
pancreas islet histology, high dose / metformin (T2DM mice [5]): the islets and vacuolar degeneration improved
liver histology, high dose / metformin (T2DM mice [6]): lower levels of steatosis were evident and the liver cells became more regular than T2DM mice
